Measurements as given in patent US11739122B2, “Glycopeptide antibiotic compounds, methods for producing the same, and uses thereof” (Academia Sinica, priority 2019, dated 2023).
Converted amounts (≈) assume the structure as drawn.

Legend:
[1] = test system: A. baumannii ATCC 19606; assay: In vivo efficacy, intranasal A. baumannii infection; set-up: species or system mice; conditions: BAL fluid, 24 hours post-inoculation
Description: (§1) In Vivo Efficacy of r6,N-Acyl-Glc Tei Analogs
(§2) Female C57BL/6 mice (6 weeks of age; about 16-19 g, 3-5 mice per group) were intraperitoneally inoculated with 300 μL of MRSA ATCC 700787 suspension (about 10^7 CFUmL^−1). For intranasal A. baumannii (ATCC 19606) inoculation, mice were anesthetized, and inoculated intranasally with about 10^7-10^8 CFUmL^−1 A. baumannii in 50 μL of PBS. Treatments were started 1 hour after the bacterial challenge. The dose administration to mice was set as follows: teicoplanin (1) or r6,C8-Tei analog (14) 20 mgkg^−1 was intraperitoneally injected to MRSA-infected mice; amikacin (15 mgkg^−1), teicoplanin (1) (30 mgkg^−1), kanamycin (30 mgkg^−1) or r1,Me2-r6,guanidino-C8 analog (24) (30 mgkg^−1) was intraperitoneally injected to AB-infected mice. To assess bacteraemia, the test animals were sacrificed to collect 1 mL of peritoneal fluid (PF) for MRSA counting or the lungs were lavaged to collect 0.6 mL bronchoalveolar lavage (BAL) fluid for A. baumannii counting.
For AB (ATCC 19606), female C57BL/6 mice were first anesthetized by intraperitoneal injection of zoletil and then intranasally inoculated with 50 μL of bacteria in a PBS solution (about 10^7-10^8 CFUmL^−1). The treatment started 1 hour post-infection with a single dose of compound 24 (30 mgkg^−1), compound 1 (30 mgkg^−1), amikacin (15 mgkg^−1), or kanamycin (30 mgkg^−1), where saline/compound 1 and amikacin/kanamycin respectively served as negative and positive controls. To assess the density of bacteraemia, the lungs of mice were lavaged to collect 0.6 mL bronchoalveolar lavage (BAL) fluid from each mouse at 24 hours post-inoculation. For saline/compound 1 treated controls, the bacterial load was counted (about 4 log CFUmL^−1, FIG. 4B), where the bacterial load was reduced by 0.5 or 1 log CFUmL^−1 with the treatment of amikacin/kanamycin or compound 24, respectively.

[2] = test system: MRSA ATCC 700787; assay: Thin-section TEM, cell wall morphology; type: cell-based, Staphylococcus aureus
Description: Thin-Section Transmission Electron Microscopy (TEM)
An overnight cultured MRSA ATCC 700787, VRE ATCC 700221 or A. baumannii ATCC 19606 was individually sub-cultured into a fresh medium. Bacteria at the exponential phase were treated with a given test compound at a concentration of 4×MIC for 1-4 hour at 37° C. and followed by wash and resuspension in PBS. Bacteria cells for the TEM analysis were prepared as follows: Cells were fixed with 2.5% glutaraldehyde for 30 minutes. After the fixation, cells were washed twice with PBS and fixed with 1% osmium tetraoxide for another 30 minutes. All the buffer was removed with distilled water. The cells were then stained with 1% uranyl acetate and dehydrated with a graded ethanol solution. Cells were embedded in resin. Finally, each sample was cut into thin slices of approximately 90 nm with a glass knife and stained with uranyl acetate. The images of bacterial morphological were recorded.
The cell wall/membrane apparently is the targets, while the extent of damage depends on what compound imposes on the strain. […] Cell wall thickening has been a common phenotype in clinical MRSA isolates, which may well be a phenotypic determinant for VRSA. The systemic cell-wall damage may account for the cell-wall biosynthesis crippled all over the cell surface in cell-wall thickening strains, thus leading cells to lysis as a result of the osmotic pressure of cytoplasm.

[3] = test system: VRE ATCC 700802 (vanB); assay: MIC, broth microdilution; type: cell-based, enterococci; conditions: VRE ATCC 700802 (vanB)
Description: (§3) Determination of Minimal Inhibitory Concentration (MIC) for Vancomycin, Teicoplanin and Tei-Analogs Versus Selected Strains
(§4) MICs were determined by the broth microdilution method. Specifically, 12 Colonies of the test strain were picked up from 18-24 hour agar cultures and freshly inoculated into broth mediums until reaching the turbidity of a 0.5 McFarland standard. The broth culture was adjusted with broth medium to approximately 1×10^8 CFUmL^−1. […] The plates were incubated in 37° C. for 18-24 hours and monitored for the wells of the positive control, where cells grew, and the wells of the negative control, where wells should not grow. The MIC value was determined for the concentration of a test compound, at which there was no visible growth in the well.

[4] = test system: VRE ATCC 700221 (vanA); assay: MIC, broth microdilution; type: cell-based, enterococci; conditions: VRE ATCC 700221 (vanA)
Description: as §3, §4

[5] = test system: VRE ATCC 700425 (vanC); assay: MIC, broth microdilution; type: cell-based, enterococci; conditions: VRE ATCC 700425 (vanC)
Description: as §3, §4

[6] = test system: MRSA ATCC 700787; assay: In vivo efficacy, intraperitoneal MRSA infection; set-up: species or system mice; conditions: peritoneal fluid, 24 hours post-inoculation, single dose 20 mgkg^−1 IP
Description: as §1, §2
For MRSA, mice were inoculated intraperitoneally (IP) with 0.3 mL of MRSA ATCC 700787 suspension (about 10^7 CFUmL^−1). […] For the saline treated control, bacterial count was calculated (about 7.5 log CFUmL^−1, FIG. 4A). […]

[7] = test system: MRSA ATCC 700787 VRSA; assay: MIC, broth microdilution; type: cell-based, Staphylococcus aureus
Description: as §3, §4

[8] = test system: S. aureus ATCC 29213; assay: MIC, broth microdilution; type: cell-based, Staphylococcus aureus; conditions: SA ATCC 29213
Description: as §3, §4

[9] = test system: MRSA ATCC 700789 VRSA; assay: MIC, broth microdilution; type: cell-based, Staphylococcus aureus; conditions: MRSA ATCC 700789 VRSA
Description: as §3, §4

[10] = test system: MRSA ATCC BAA-44; assay: MIC, broth microdilution; type: cell-based, Staphylococcus aureus; conditions: MRSA ATCC BAA-44
Description: as §3, §4

[11] = test system: MRSA ATCC BAA-38; assay: MIC, broth microdilution; type: cell-based, Staphylococcus aureus; conditions: MRSA ATCC BAA-38
Description: as §3, §4

[12] = test system: MRSA ATCC 43300; assay: MIC, broth microdilution; type: cell-based, Staphylococcus aureus; conditions: MRSA ATCC 43300
Description: as §3, §4

[13] = test system: MRSA ATCC BAA-39; assay: MIC, broth microdilution; type: cell-based, Staphylococcus aureus; conditions: MRSA ATCC BAA-39
Description: as §3, §4

[14] = test system: MRSA ATCC 700698 hVISA; assay: MIC, broth microdilution; type: cell-based, Staphylococcus aureus; conditions: MRSA ATCC 700698 hVISA
Description: as §3, §4

[15] = test system: HEK293T cells; assay: Alamar Blue cell viability assay; type: cell-based, human; conditions: up to 100 μgmL^−1; 2 and 24 h
Description: The Alamar Blue (AB) assay, which includes a redox indicator that changes color or emits fluorescence in response to a metabolic activity, was used to assess in vitro mammalian cell cytotoxicity (human embryonic kidney cells (HEK293T)) upon an antibiotic treatment. 2×10^5 cellsmL^−1 were allowed to adhere on 96-well plates overnight at 37° C. in a humidified incubator (5% CO2 atmosphere). Tested compounds were dissolved in 50% DMSO to make 1 mgmL^−1 of a stock solution. Cells were separately aliquoted with 5 μL of a test compound (final concentration: 100 μgmL^−1) and incubated. PBS and 50% DMSO, which was used to dissolve compounds, served as a control. Cell viability was triplicated and assessed at 2 and 24 hour time points for each test compound, on which the measurements followed the manufacturer protocol.

[16] = test system: A. baumannii ATCC 19606; assay: MIC, broth microdilution; type: cell-based, Acinetobacter baumannii
Description: as §3, §4

[17] = test system: E. faecalis ATCC 29302; assay: MIC, broth microdilution; type: cell-based; conditions: EF ATCC 29302
Description: as §3, §4

[18] = test system: MRSA ATCC 700787; assay: Minimal bactericidal concentration (MBC); type: cell-based, Staphylococcus aureus
Description: (§5) Minimal Bactericidal Concentration (MBC) Determination
(§6) The MBC test is an extension of the MIC examination. MBC was determined by performing subcultures on antibiotic-free agar from both the well where there was no visible growth at the MIC of a tested antibiotic and from the positive control well (with inoculum but without compounds). The plates were incubated at 37° C. for 18-24 hours. The MBC was taken as the lowest concentration of the test compound that results in more than 99.9% reduction of viable bacteria. If MBC was one or two dilutions above a given MIC value (MBC/MIC ratio was less than or equal to four), the antibiotic was considered bactericidal against the test organism.

[19] = test system: AB ATCC 19606; assay: Minimal bactericidal concentration (MBC); type: cell-based, Acinetobacter baumannii
Description: as §5, §6

[20] = test system: A. baumannii ATCC 19606; assay: Thin-section TEM, cell wall morphology; type: cell-based, Acinetobacter baumannii; conditions: AB ATCC 19606; 24 50 μM, colistin 3.2 μM, combination 25 μM each
[21] = A. baumannii ATCC 19606, Table 3, first figure of cell
[22] = A. baumannii ATCC 19606, Table 3, second figure of cell

Row | Molecule | MIC [3] [µg/mL] | MIC [4] [µg/mL] | MIC [5] [µg/mL] | MIC ([7]; MRSA ATCC 700787 VRSA) [µg/mL] | MIC [8] [µg/mL] | MIC [14] [µg/mL] | cytotoxicity to HEK293T cells [15] | MIC [16, 21] [µM] | MIC [16, 22] [µg/mL] | MIC [17] [µg/mL] | also measured
1 | teicoplanin [Compound 1, reference compound] | 0.5 | >128 | 1 | 8 | 0.25 | 4 | did not exhibit any observable toxicity | 100 | 187.97 | 0.125 | bacterial load ([1]; 30 mgkg^−1): about 4 log CFUmL^−1; cell wall morphology by TEM [2]: loose; bacterial load reduced by [6]: 1.5 log CFUmL^−1; MIC [9]: 4 µg/mL; MIC [10]: 0.5 µg/mL; MIC [11]: 0.25 µg/mL; MIC [12]: 0.25 µg/mL; MIC [13]: 0.5 µg/mL
2 | CN(C)[C@H]1C(=O)N[C@@H]2Cc3ccc(c(Cl)c3)Oc3cc4cc(c3O)Oc3ccc(cc3Cl)[C@@H](O[C@@H]3O[C@H](CO)[C@@H](O)[C@H](O)[C@H]3NC(=O)CCCCCCCNC(=N)N)[C@@H]3NC(=O)[C@H](NC(=O)[C@@H]4NC(=O)[C@@H](NC2=O)c2cc(O)cc(c2)Oc2cc1ccc2O)c1ccc(O)c(c1)-c1c(O)cc(O)cc1[C@@H](C(=O)O)NC3=O [Compound 24, r1,Me2-r6,C8-guanidino-Tei] | 4 (≈ 2.55 µM) | >16 | 8 (≈ 5.09 µM) | 0.016 (≈ 0.0102 µM) | 0.5 (≈ 0.318 µM) | 0.031 (≈ 0.0197 µM) | did not exhibit any observable toxicity | 25 | 39.24 | 0.5 (≈ 0.318 µM) | bacterial load reduced by ([1]; 24 and kanamycin 30, amikacin 15 mgkg^−1): 1 log CFUmL^−1; MBC [18]: 0.031 µg/mL (≈ 0.0197 µM); MBC/MIC [18]: 2; MBC [19]: 39.24 µg/mL (≈ 25 µM); MBC/MIC [19]: 1; cell membrane/cell wall morphology by TEM [20]: intactness of cell membrane/cell wall was severely damaged; MIC ([7]; MRSA ATCC 700787, Table 4): 0.016 µg/mL (≈ 0.0102 µM); MIC on AB ([16]; A. baumannii ATCC 19606): 39.24 µg/mL (≈ 25 µM); MIC ([16]; AB ATCC 19606, Table 4): 39.24 µg/mL
